Test results published in US10227334B2, “Estrogen receptor modulators and uses thereof” (Genentech, Inc., priority 2013, dated 2019).
pIC50: −log10 of the molar value.

Experiments:
[1] = test system: MCF-7 cells; test: Breast cancer cell viability assay (MCF7, CellTiter-Glo); settings: for pIC50: read-out: MCF7 Viability Assay: IC50, 5 days' compound exposure; for MCF7 Viability Assay: % Viability relative to Fulvestrant: 5 days' compound exposure
[2] = test system: tamoxifen resistant MCF-7 tumors; test: Breast cancer model: xenograft assay (MCF-7 derivative, tamoxifen resistant); format: in vivo; settings: female nu/nu mice
Method: Female nu/nu mice (with supplemental 17-β Estradiol pellets; 0.72 mg; 60 day slow release) bearing MCF-7 tumors (mean tumor volume 200 mm^3) were treated with Tamoxifen (citrate) by oral gavage. Tumor volume (length×width^2/2) and body weight were monitored twice weekly. Following a significant anti-tumor response in which tumor volume remained static, evident tumor growth was first observed at approximately 100 days of treatment. At 120 days of treatment, tamoxifen dose was increased. Rapidly growing tumors were deemed tamoxifen resistant and selected for in vivo passage into new host animals. Tumor Fragments (˜100 mm^3/animal) from the tamoxifen resistant tumors were subcutaneously implanted into the right flank of female nu/nu mice (with 17-β Estradiol pellets (0.72 mg; 60 day slow release)). Passaged tumors were maintained under constant Tamoxifen selection, and Tumor volume (length×width^2/2) was monitored weekly. When tumor volume reached ˜150-250 mm^3, animals were randomized into treatment groups (mean tumor volume 200 mm^3) and tamoxifen treatment was terminated (except for a tamoxifen control arm). Animals were treated with Vehicle or Compound daily for 4 weeks. Tumor volume and body weight were monitored twice weekly for the duration of the study. At the conclusion of the treatment period; plasma and tumor samples were taken for pharmacokinetic and pharmacodynamic analyses, respectively.

[3] = molecular target: ER-α (Homo sapiens (Human), UniProt P03372); test: Breast cancer cell ER-α In-Cell Western assay (SP1); format: cell-based; settings: MCF7 cells, 4 hours post compound addition
Method: MCF7 cells were trypsinized and washed twice in Phenol Red Free RPMI containing 5% Charcoal Dextran Stripped serum with 20 mM HEPES and NEAA, then adjusted to a concentration of 200,000 cells per mL with the same medium. Next, 16 μL of the cell suspension (3200 cells) was added to each well of a poly-D-lysine coated 384 well plate, and the cells were incubated at 37° C. over 4 days to allow the cells to adhere and grow. […] At 4 hours post compound addition, the cells were fixed by adding 16 μL of 30% formalin to the 32 μL of cells and compound (10% formalin final concentration) for 20 minutes. Cells were then washed twice with PBS Tween 0.1% and then permeabilized in PBS 0.1% Triton (50 μl/well) for additional 15 minutes. The PBS 0.1% triton was decanted, and the cells were washed: LI-COR blocking buffer (50 μL/well) was added, the plate was spun at 3000 rpm, and then the blocking buffer was decanted. Additional LI-COR blocking buffer (50 μL/well) was added, and the cells were incubated overnight at 4° C. The blocking buffer was decanted, and the cells were incubated overnight at 4° C. with SP1 (Thermo Scientific) anti-ER rabbit monoclonal antibody diluted 1:1000 in LI-COR blocking buffer/0.1% Tween-20. Wells which were treated with blocking buffer with Tween but no antibody were used as a background control. Wells were washed twice with PBS Tween 0.1% to remove free SP1 antibodies, and the cells were incubated at room temp for 60-90 minutes in LI-COR goat anti-rabbit IRDye™ 800CW (1:1000) and DRAQ5 DNA dye (1:10000 of 5 mM stock solution) diluted in LI-COR blocking buffer containing 0.1% Tween-20 and 0.01% SDS. Cells were then washed with 0.1% Tween-20/PBS three times. Plates were scanned on a LI-COR Odyssey infrared imaging system. Integrated intensities in the 800 nm channel and 700 nm channel were measured to determine levels of ER-α and DNA respectively. Percent ER levels were determined as follows: (Integrated intensity 800 nm sample/integrated intensity 700 nm sample)/(Integrated intensity 800 nm untreated cells/integrated intensity 700 nm untreated cells)×100=% ER-α levels.

Sequence of ER-α (P03372 whole entry): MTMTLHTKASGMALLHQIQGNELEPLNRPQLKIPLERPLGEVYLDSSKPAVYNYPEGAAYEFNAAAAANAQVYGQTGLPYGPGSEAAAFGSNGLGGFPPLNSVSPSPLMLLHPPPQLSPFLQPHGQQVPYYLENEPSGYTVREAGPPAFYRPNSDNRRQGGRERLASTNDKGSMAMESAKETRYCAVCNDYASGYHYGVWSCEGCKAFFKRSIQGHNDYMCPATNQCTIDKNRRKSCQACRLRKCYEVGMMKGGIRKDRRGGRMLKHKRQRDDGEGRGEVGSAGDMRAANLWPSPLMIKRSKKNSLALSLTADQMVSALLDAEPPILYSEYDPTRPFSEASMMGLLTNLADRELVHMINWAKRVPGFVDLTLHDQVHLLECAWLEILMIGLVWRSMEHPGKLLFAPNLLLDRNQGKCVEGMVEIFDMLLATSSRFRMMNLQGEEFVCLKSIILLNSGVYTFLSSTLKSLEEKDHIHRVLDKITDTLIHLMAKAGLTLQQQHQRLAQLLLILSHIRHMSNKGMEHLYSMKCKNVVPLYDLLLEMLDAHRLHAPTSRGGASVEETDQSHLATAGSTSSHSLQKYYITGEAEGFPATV

| Compound | pIC50 [1] | Number of Tumors Smaller at t = 27 days than at Start of study (t = 0 days) ([2]; 10 mpk oral dose each day) | Number of Tumors Smaller at t = 27 days than at Start of study (t = 0 days) ([2]; 30 mpk oral dose each day) | Number of Tumors Smaller at t = 27 days than at Start of study (t = 0 days) ([2]; 100 mpk oral dose each day) | MCF7 Viability Assay: % Viability relative to Fulvestrant [1] | ER-α In-Cell Western Assay (SP1): % ER-α remaining relative to Fulvestrant [3] | pIC50 [3] |
| --- | --- | --- | --- | --- | --- | --- | --- |
| CC1=C(c2cccc(O)c2)C(c2ccc(OCCN3CC(CF)C3)cc2)Oc2ccc(O)cc21 (racemic) [Example 1, (±)-2-(4-(2-(3-(Fluoromethyl)azetidin-1-yl)ethoxy)phenyl)-3-(3-hydroxyphenyl)-4-methyl-2H-chromen-6-ol] | 9.68 | – | – | – | – | – | – |
| CC1=C(c2cccc(O)c2)[C@@H](c2ccc(OCCN3CC(CF)C3)cc2)Oc2ccc(O)cc21 [Example 2, (R)-2-(4-(2-(3-(Fluoromethyl)azetidin-1-yl)ethoxy)phenyl)-3-(3-hydroxyphenyl)-4-methyl-2H-chromen-6-ol] | 8.37 | – | – | – | – | – | – |
| CC1=C(c2cccc(O)c2)[C@H](c2ccc(OCCN3CC(CF)C3)cc2)Oc2ccc(O)cc21 [Example 3, (S)-2-(4-(2-(3-(fluoromethyl)azetidin-1-yl)ethoxy)phenyl)-3-(3-hydroxyphenyl)-4-methyl-2H-chromen-6-ol] | 10.15 | 0/5 | 2/8 | 5/8 | – | – | – |
| CC1=C(c2cccc(O)c2)C(c2ccc(OCCN3CCC3)cc2)Oc2ccc(O)cc21 (centres unmarked) [2-(4-(2-(azetidin-1-yl)ethoxy)phenyl)-3-(3-hydroxyphenyl)-4-methyl-2H-chromen-6-ol] | – | – | – | – | 25% | 24% | – |
| CC1=C(c2cccc(O)c2)C(c2ccc(OCCN3CC(C)C3)cc2)Oc2ccc(O)cc21 (racemic) [Example 4, 3-(3-Hydroxyphenyl)-4-methyl-2-(4-(2-(3-methylazetidin-1-yl)ethoxy)phenyl)-2H-chromen-6-ol] | – | – | – | – | 13% | 14% | – |
| CC1=C(c2cccc(O)c2)C(c2ccc(OC[C@H](C)N3CC[C@@H](F)C3)cc2)Oc2ccc(O)cc21 (stereo partly drawn) [2-(4-((S)-2-((R)-3-fluoropyrrolidin-1-yl)propoxy)phenyl)-3-(3-hydroxyphenyl)-4-methyl-2H-chromen-6-ol] | – | – | – | – | 16% | 8% | – |
| CC1=C(c2cccc(O)c2)C(c2ccc(OC[C@H](C)N3CCC3)cc2)Oc2ccc(O)cc21 (stereo partly drawn) [2-(4-((S)-2-(azetidin-1-yl)propoxy)phenyl)-3-(3-hydroxyphenyl)-4-methyl-2H-chromen-6-ol] | – | – | – | – | 30% | 33% | – |
| CC1=C(c2cccc(O)c2)[C@H](c2ccc(OC[C@H](C)N3CC[C@@H](C)C3)cc2)Oc2ccc(O)cc21 [(S)-3-(3-Hydroxyphenyl)-4-methyl-2-(4-((S)-2-((R)-3-methylpyrrolidin-1-yl)propoxy)phenyl)-2H-chromen-6-ol] | 9.89 | 0/8 | 1/8 | 1/8 | 8% | – | 9.96 |
